Test results taken from the Kinase Knowledgebase extract (Sharma et al. 2016).

How the values were obtained:
[1] = target: PIK3CA (human), P42336 [Antiproliferation of PI3K Mutated BT20 Cells]; assay: Cell-Based Assay
PIK3CA (human) = PIK3CA (human) (UniProt P42336); assay: Inhibition of PIK3CA Kinase Activity
PIK3CA (human), sequence (P42336 whole entry, looked up): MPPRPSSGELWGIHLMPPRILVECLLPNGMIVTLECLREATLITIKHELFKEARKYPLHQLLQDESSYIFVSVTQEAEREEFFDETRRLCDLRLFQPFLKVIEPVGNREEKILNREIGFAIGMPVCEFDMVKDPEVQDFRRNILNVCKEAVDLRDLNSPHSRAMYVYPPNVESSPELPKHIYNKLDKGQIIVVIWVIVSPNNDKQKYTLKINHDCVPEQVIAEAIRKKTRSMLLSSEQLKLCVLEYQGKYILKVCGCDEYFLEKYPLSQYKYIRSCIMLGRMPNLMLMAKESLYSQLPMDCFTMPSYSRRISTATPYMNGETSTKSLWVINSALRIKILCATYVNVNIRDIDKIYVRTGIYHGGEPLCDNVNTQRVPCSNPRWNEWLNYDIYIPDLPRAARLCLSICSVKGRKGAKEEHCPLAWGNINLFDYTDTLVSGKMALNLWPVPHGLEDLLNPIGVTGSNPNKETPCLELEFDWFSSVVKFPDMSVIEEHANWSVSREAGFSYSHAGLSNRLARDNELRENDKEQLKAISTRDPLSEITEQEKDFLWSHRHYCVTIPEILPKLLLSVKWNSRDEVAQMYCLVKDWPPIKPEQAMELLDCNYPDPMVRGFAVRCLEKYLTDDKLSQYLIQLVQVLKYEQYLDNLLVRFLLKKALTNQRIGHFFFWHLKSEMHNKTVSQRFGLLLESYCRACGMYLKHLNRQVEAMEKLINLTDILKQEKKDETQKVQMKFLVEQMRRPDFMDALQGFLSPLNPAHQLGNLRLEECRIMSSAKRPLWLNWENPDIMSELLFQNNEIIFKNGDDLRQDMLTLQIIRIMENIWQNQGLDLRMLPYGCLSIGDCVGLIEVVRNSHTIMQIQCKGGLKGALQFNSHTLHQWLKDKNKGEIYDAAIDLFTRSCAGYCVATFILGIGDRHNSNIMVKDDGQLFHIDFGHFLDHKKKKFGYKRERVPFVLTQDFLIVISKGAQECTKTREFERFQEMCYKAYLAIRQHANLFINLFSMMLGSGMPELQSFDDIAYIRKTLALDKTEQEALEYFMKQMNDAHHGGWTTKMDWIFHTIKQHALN

PIK3CA (human), P42336 [Antiproliferation of PI3K Mutated BT20 Cells], sequence (P42336 whole entry, looked up, change not shown): as the sequence (P42336 whole entry, looked up) above

Compound | IC50 [1] | IC50 (PIK3CA (human))
COc1ccc(Cn2c(=O)c(-c3ccccc3)cc3c(C)nc(N)nc32)cc1 | – | 310 nM
CNc1nc(C)c2cc(-c3ccc(OC)nc3)c(=O)[nH]c2n1 | 2760 nM | 460 nM
Cc1nc(N)nc2c1cc(-c1cn[nH]c1)c(=O)n2CC(F)(F)F | 236 nM | 188 nM
Cc1nc(NCC(C)(C)O)nc2c1cc(-c1cccc(O)c1)c(=O)n2C1CCCC1 | 1180 nM | –
Cc1nc(N)nc2c1cc(Br)c(=O)n2CC1CCOC1 (stereo unspecified) | 1020 nM | 94 nM
Cc1nc(N)nc2c1cc(-c1ccccc1)c(=O)n2Cc1ccc(Cl)cc1 | – | 1400 nM
Cc1nc(N)nc2c1cc(-c1cnc(O)nc1)c(=O)n2C1CCOCC1 | 10000 nM | 810 nM
COc1ccc(-c2cc3c(C)nc(N)nc3n(C3CCNC3)c2=O)cn1 (stereo unspecified) | 671 nM | 200 nM
Cc1nc(N)nc2c1cc(-c1cnc(O)nc1)c(=O)n2C(C)C | 2520 nM | 300 nM
CNc1nc(C)c2cc(-c3ccc(Cl)nc3)c(=O)n(C3CCCC3)c2n1 | 146 nM | 29.7 nM
CNc1nc(C)c2cc(/C=C/O)c(=O)n(C3CCCC3)c2n1 | 896 nM | 42 nM
Cc1nc(N)nc2c1cc(-c1cnc3[nH]ccc3c1)c(=O)n2C1CC1 | 138 nM | 17 nM
COc1ncc(-c2cc3c(C)nc(N)nc3n([C@H]3CC[C@@H](OCCO)CC3)c2=O)cc1F | – | 2.6 nM
CCNc1nc(C)c2cc(CCC(=O)OCC)c(=O)n(C3CCCC3)c2n1 | 10000 nM | 5500 nM
CNc1nc(C)c2cc(-c3cncnc3)c(=O)n(C3CCCC3)c2n1 | 305 nM | 23 nM
COc1ccc(-c2cc3c(C)nc(N)nc3n(CCN)c2=O)cn1 | 4530 nM | 340 nM
Cc1nc(N)nc2c1cc(-c1cn[nH]c1)c(=O)n2N1CCCC1 | – | 28 nM
CCNc1nc(C)c2cc(-c3cccnc3N)c(=O)n(C3CCCC3)c2n1 | 7980 nM | 3400 nM
CNc1nc(C)c2cc(-c3ncccc3F)c(=O)n(C3CCCC3)c2n1 | 8300 nM | 2100 nM
CNc1nc(C)c2cc(C(N)=O)c(=O)n(C3CCCC3)c2n1 | 650 nM | 68 nM

Compound | IC50 [1] | IC50 (PIK3CA (human))
COc1cccc(-c2cc3c(C)nc(N)nc3n(C3CCCC3)c2=O)c1 | 622 nM | 168 nM
CCn1cc(CNC(=O)c2cc3c(C)nc(NC)nc3n(C3CCCC3)c2=O)cn1 | – | 1200 nM
Cc1nc(N)nc2c1cc(-c1ccc(F)cc1)c(=O)n2CC(C)(C)O | 10000 nM | 3400 nM
CCNc1nc(C)c2cc(CCC(=O)Nc3ncc[nH]3)c(=O)n(C3CCCC3)c2n1 | 5710 nM | 310 nM
Cc1nc(N)nc2c1cc(-c1cn[nH]c1)c(=O)n2C1CC1 | – | 78 nM
CNc1nc(C)c2cc(-c3cnn(C)c3)c(=O)n(C3CCCC3)c2n1 | 314 nM | 39 nM
C#Cc1cc2c(C)nc(N)nc2n(C2CCC2)c1=O | 657 nM | 110 nM
Cc1nc(N)nc2c1cc(Br)c(=O)n2C1CCC(=O)CC1 | 211 nM | 110 nM
Cc1nc(N)nc2c1cc(C#N)c(=O)n2C1CCC1 | 2090 nM | 95 nM
CCNc1nc(C)c2cc(CCC(=O)Nc3ccccn3)c(=O)n(C3CCCC3)c2n1 | 10000 nM | –
CCNc1nc(C)c2cc(CCC(=O)N(CC)CC)c(=O)n(C3CCCC3)c2n1 | 10000 nM | –
CNc1nc(C)c2cc(-c3cc(CN)ccc3F)c(=O)n(C3CCCC3)c2n1 | 10000 nM | –
COc1ccc(-c2cc3c(C)nc(N)nc3n(C3CC3)c2=O)cn1 | – | 56 nM
CCn1nccc1NC(=O)c1cc2c(C)nc(N)nc2n(C(C)C)c1=O | – | 3.9 nM
Cc1nc(N)nc2c1cc(-c1ccncc1)c(=O)n2Cc1ccc(Cl)cc1 | – | 4900 nM
COc1ccc(-c2cc3c(C)nc(N)nc3n(N3CCCC3)c2=O)cn1 | – | 23 nM
Cc1nc(N)nc2c1cc(-c1cnc3ccccc3c1)c(=O)n2CC(C)(C)O | 322 nM | –
COc1ncc(-c2cc3c(C)nc(N)nc3n(C3CCOCC3)c2=O)cc1F | – | 1.43 nM
CCNc1nc(C)c2cc(CCC(=O)N(C)C)c(=O)n(C3CCCC3)c2n1 | 10000 nM | –

Further lines, results first:

IC50 [1] | IC50 (PIK3CA (human)) | Compound
12.6 nM | 2.14 nM | COc1ncc(-c2cc3c(C)nc(N)nc3n([C@H]3C[C@H](OCC(N)=O)C3)c2=O)cc1F
33.2 nM | 3.9 nM | Cc1nc(N)nc2c1cc(-c1cccc(CO)c1)c(=O)n2C1CCOCC1
101 nM | 89 nM | Cc1nc(N)nc2c1cc(-c1cnn(CC(C)(C)O)c1)c(=O)n2C1CCCC1
94.2 nM | 11 nM | COc1ccc(-c2cc3c(C)nc(N)nc3n(CCC3CC3)c2=O)cn1
28.3 nM | 0.59 nM | Cc1nc(N)nc2c1cc(C(=O)Nc1ccn[nH]1)c(=O)n2[C@H]1CC[C@H](O)CC1
50.5 nM | 1.3 nM | CCn1nccc1NC(=O)c1cc2c(C)nc(N)nc2n([C@H]2CC[C@H](O)CC2)c1=O
5.08 nM | 93 nM | Cc1nc(N)nc2c1cc(-c1cnn(C(=O)OC(C)(C)C)c1)c(=O)n2N1CCCC1
19.3 nM | – | COc1ccc(-c2cc3c(C)nc(N)nc3n([C@H]3CC[C@H](OCC(N)=O)CC3)c2=O)cn1
4.66 nM | 12 nM | Cc1nc(N)nc2c1cc(-c1cn[nH]c1)c(=O)n2C1CCC(=O)CC1
38.9 nM | 2.2 nM | COc1ncc(-c2cc3c(C)nc(N)nc3n([C@H]3CC[C@H](OCCO)CC3)c2=O)cn1
26.5 nM | 88 nM | Cc1nc(N)nc2c1cc(-c1ccc(N3CCCC3)nc1)c(=O)n2C1CCCC1
20.5 nM | – | COc1ccc(-c2cc3c(C)nc(N)nc3n([C@H]3CC[C@@H](OCC(N)=O)CC3)c2=O)cn1
71.4 nM | – | COc1ccc(-c2cc3c(C)nc(N)nc3n(C3CCOCC3)c2=O)cn1
20.2 nM | 3.1 nM | Cc1nc(N)nc2c1cc(-c1cccc(CO)c1)c(=O)n2C1CCCC1
12.1 nM | 9.28 nM | Cc1nc(N)nc2c1cc(-c1ccc(N(C)C)nc1)c(=O)n2[C@H]1CC[C@H](OCCO)CC1
4.92 nM | 19 nM | Cc1nc(N)nc2c1cc(-c1ccc(N3CCCC3)nc1)c(=O)n2[C@H]1CC[C@H](O)CC1
7.37 nM | 3.9 nM | COc1ccc(-c2cc3c(C)nc(N)nc3n([C@H]3CC[C@H](OC)CC3)c2=O)cn1
21.2 nM | 2.7 nM | CCOc1ccc(-c2cc3c(C)nc(N)nc3n([C@H]3CC[C@H](O)CC3)c2=O)cn1
57.8 nM | 2.8 nM | Cc1nc(N)nc2c1cc(-c1cnc3[nH]ccc3c1)c(=O)n2CC1CCOC1 (stereo unspecified)
17.9 nM | 15 nM | Cc1nc(N)nc2c1cc(-c1cnc(N)cn1)c(=O)n2C1CCCC1
2.58 nM | 8 nM | CNc1nc(C)c2cc(-c3cn[nH]c3)c(=O)n(C3CCCC3)c2n1
9.57 nM | 2 nM | COc1ncc(-c2cc3c(C)nc(N)nc3n(C3CCCC3)c2=O)cn1
4.84 nM | 0.524 nM | Cc1nc(N)nc2c1cc(-c1cccc(O)c1)c(=O)n2C1CCCC1
50.8 nM | 10.2 nM | COc1ccc(-c2cc3c(C)nc(N)nc3n([C@H]3C[C@H](OCCO)C3)c2=O)cn1
110 nM | 5.91 nM | COc1ncc(-c2cc3c(C)nc(N)nc3n([C@H]3C[C@H](OCC(N)=O)C3)c2=O)cn1

IC50 [1] | IC50 (PIK3CA (human)) | Compound
88.4 nM | 15 nM | COc1ccc(-c2cc3c(C)nc(N)nc3n(CC3CCOCC3)c2=O)cn1
26.7 nM | 45 nM | COc1ncc(-c2cc3c(C)nc(N)nc3n(C3CCOCC3)c2=O)cn1
1.76 nM | 0.731 nM | CNc1nc(C)c2cc(-c3cccc(O)c3)c(=O)n(C3CCCC3)c2n1
25.4 nM | 1.6 nM | Cc1nc(N)nc2c1cc(-c1ccc3cc[nH]c3n1)c(=O)n2[C@H]1CC[C@@H](O)CC1
19 nM | 0.989 nM | COc1cc(-c2cc3c(C)nc(N)nc3n(C3CCCC3)c2=O)ccc1O
17.2 nM | 9.5 nM | CO[C@H]1CC[C@H](n2c(=O)c(-c3cc[nH]n3)cc3c(C)nc(N)nc32)CC1
19.9 nM | 18.5 nM | Cc1nc(N)nc2c1cc(-c1cn[nH]c1)c(=O)n2C1CCOCC1
15.3 nM | 3.7 nM | Cc1nc(N)nc2c1cc(-c1cnc3[nH]ccc3c1)c(=O)n2C1CCOCC1
26.3 nM | 3.08 nM | CCNc1nc(C)c2cc(-c3ccc(O)c(OC)c3)c(=O)n(C3CCCC3)c2n1
96.5 nM | 55.2 nM | Cc1nc(N)nc2c1cc(Br)c(=O)n2[C@H]1CC[C@H](OCCO)CC1
5.3 nM | 1.44 nM | COc1ncc(-c2cc3c(C)nc(N)nc3n([C@H]3CC[C@H](OCCO)CC3)c2=O)cc1F
45.9 nM | 15 nM | COc1ccc(-c2cc3c(C)nc(N)nc3n(C3CCCC3)c2=O)cc1F
49.3 nM | 2.2 nM | COc1ncc(-c2cc3c(C)nc(N)nc3n(C(C)C)c2=O)cn1
42 nM | 8.2 nM | Cc1nc(N)nc2c1cc(-c1cnc3ccccc3c1)c(=O)n2[C@H]1CC[C@H](O)CC1
33.5 nM | 4.72 nM | COc1ccc(-c2cc3c(C)nc(N)nc3n([C@H]3C[C@H](OCC(N)=O)C3)c2=O)cn1
33.5 nM | 7.58 nM | Cc1nc(N)nc2c1cc(-c1cn[nH]c1)c(=O)n2[C@H]1CC[C@H](OCCO)CC1
64 nM | 31 nM | CO[C@H]1CC[C@H](n2c(=O)c(Br)cc3c(C)nc(N)nc32)CC1
127 nM | 7 nM | COc1ccc(-c2cc3c(C)nc(N)nc3n(C3CCN(C(C)=O)C3)c2=O)cn1 (stereo unspecified)
13.2 nM | 6.82 nM | COc1ccc(-c2cc3c(C)nc(N)nc3n([C@H]3CC[C@H](OC[C@@H](O)CO)CC3)c2=O)cn1
3.6 nM | – | COc1ccc(-c2cc3c(C)nc(N)nc3n([C@H]3CC[C@H](O)CC3)c2=O)cn1
3.49 nM | – | Cc1nc(N)nc2c1cc(-c1cn[nH]c1)c(=O)n2C1CCCC1
51.9 nM | – | COc1ncc(-c2cc3c(C)nc(N)nc3n([C@H]3CC[C@H](OCC(N)=O)CC3)c2=O)cn1
19 nM | – | COc1ccc(-c2cc3c(C)nc(N)nc3n([C@H]3CC[C@@H](O)CC3)c2=O)cn1
82.9 nM | – | COc1ncc(-c2cc3c(C)nc(N)nc3n([C@H]3CC[C@@H](OCC(N)=O)CC3)c2=O)cn1
